# Tested on: mixture of Pseudomonas aeruginosa, Klebsiella pneumoniae, Staphylococcus aureus, and Bacillus subtilis
# Experiment: Growth inhibition assay (microtiter plate-based synergy assay)
# Details: active used alone; dilute mineral salts medium pH 7.5; 37° C., 24 hr; OD580
# Source text: Growth Inhibition Assay. […] Regardless of the mechanism of action, the impact of a biocide (or combination of biocides) can be measured over time on the basis of an increase in the size of the community.
# The assay measures the efficacy of one or more biocides at preventing growth of a consortium of bacteria in a dilute mineral salts medium. The medium contains (in mg/l) the following components: FeCl3.6H2O (1); CaCl2.2H2O (10); MgSO4.7H2O (22.5); (NH4)2SO4 (40); KH2PO4 (10); K2HPO4 (25.5); Yeast Extract (10); and glucose (100). After all components are added to deionized water, the pH of the medium is adjusted to 7.5. Following filter sterilization, aliquots are dispensed in 100 μl quantities to sterile microtiter plate wells. Dilutions of 2,2-dibromomalonamide (“DBMAL”) and/or “Biocide B” are then added to the microtiter plate. After preparing the combinations of actives as illustrated below, each well is inoculated with 100 μl of a cell suspension containing ca. 1×10^6 cells per milliliter of a mixture of Pseudomonas aeruginosa, Klebsiella pneumoniae, Staphylococcus aureus, and Bacillus subtilis. The final total volume of medium in each well is 300 μl. Once prepared as described herein, the concentration of each active ranges from 25 ppm to 0.195 ppm as illustrated in Table 1. The resulting matrix allows testing of eight concentrations of each active and 64 combinations of actives in the ratios (of actives).
# Immediately after the microtiter plates are prepared, the optical density (OD) readings for each well is measured at 580 nm and the plates are then incubated at 37° C. for 24 hr. After the incubation period, the plates are gently agitated before OD580 values are collected. The OD580 values at T0 are subtracted from T24 values to determine the total amount of growth (or lack thereof) that occurs. These values are used to calculate the percent inhibition of growth caused by the presence of each biocide and each of the 64 combinations. A 90% inhibition of growth is used as a threshold for calculating synergy index (SI) values with the following equation: Synergy Index=MDBMAL/CDBMAL+MB/CB
# where • CDBMAL: Concentration of DBMAL required to inhibit ≧90% of bacterial growth when used alone • CB: Concentration of biocide (B) required to inhibit ≧90% of bacterial growth when used alone. • MDBMAL: Concentration of DBMAL required to inhibit ≧90% of bacterial growth when used in combination with biocide (B). • MB: Concentration of biocide (B) required to inhibit ≧90% of bacterial growth when used in combination with DBMAL The SI values are interpreted as follows: • SI<1: Synergistic combination • SI=1: Additive combination • SI>1: Antagonistic combination
# In the Examples below, the amounts of biocides in the solution are measured in mg per liter of solution (mg/l). Since solution densities are approximately 1.00, the mg/l measurement corresponds to weight and can be expressed as parts per million (ppm). Both units may therefore be used interchangeably in the Examples.
compound,measurement,value
"CC1(C)C(=O)N(Cl)C(=O)N1Cl [DCDMH, dichlorodimethylhydantoin]",I90 value (minimum concentration to result in at least 90% inhibition of growth),0.78 mg/L
"NC(=O)C(Br)(Br)C(N)=O [DBMAL, 2,2-dibromomalonamide]",I90 value (minimum concentration to result in at least 90% inhibition of growth),6.25 mg/L
"OCl [HOCl, hypochlorous acid]",I90 value (minimum concentration to result in at least 90% inhibition of growth),0.78 mg/L
monochlorodimethylhydantoin [MCDMH],I90 value (minimum concentration to result in at least 90% inhibition of growth),3.13 mg/L
"OBr [HOBr, hypobromous acid]",I90 value (minimum concentration to result in at least 90% inhibition of growth),12.5 mg/L
"CC1(C)C(=O)N(Br)C(=O)N1Br [DBDMH, dibromodimethylhydantoin]",I90 value (minimum concentration to result in at least 90% inhibition of growth),3.13 mg/L

# From US9241484B2, “Compositions of dibromomalonamide and their use as biocides” (Dow Global Technologies LLC, priority 2011, dated 2016)
